Data set [1] is described as follows: Stability of the compound after 48 hrs by NMR spectroscopy. The class given is physicochemical.
Data set [2] can be described thus: Stability of the compound in DMSO-d6 at room temperature after 4 to 21 days by NMR spectroscopy in presence of CDCl3. The class given is ADME.
Data set [3] can be described thus: Stability of the compound after 36 hrs by NMR spectroscopy. Format: physicochemical.
In data set [4] the target is Oxoeicosanoid receptor 1 (Homo sapiens, UniProt Q8TDS5). Nature of the data set: Agonist activity at OXE receptor (unknown origin) expressed in HEK293 cells co-expressing Galpha subunit G16 assessed as calcium mobilization using Oregon Green 488 BAPTA-1/AM by fluorescence assay. The class given is functional, cell-based.
Oxoeicosanoid receptor 1, sequence (Q8TDS5 whole entry): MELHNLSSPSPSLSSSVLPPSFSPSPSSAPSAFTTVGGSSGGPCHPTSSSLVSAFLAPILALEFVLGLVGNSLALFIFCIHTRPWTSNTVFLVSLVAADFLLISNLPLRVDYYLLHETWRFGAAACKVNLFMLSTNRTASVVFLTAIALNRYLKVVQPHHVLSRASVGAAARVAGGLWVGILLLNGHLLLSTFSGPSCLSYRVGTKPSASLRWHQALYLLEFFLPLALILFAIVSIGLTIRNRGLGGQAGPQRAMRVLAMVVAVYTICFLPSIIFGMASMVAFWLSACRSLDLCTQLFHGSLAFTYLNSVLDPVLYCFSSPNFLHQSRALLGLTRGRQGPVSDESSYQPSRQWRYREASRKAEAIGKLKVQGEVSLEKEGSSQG
A short description of data set [5]: Stability of the compound at room temperature after 19 days by NMR spectroscopy in presence of CDCl3. Format: ADME. Conditions: 456 h.

The structures appear in SMILES notation.

`CCCCC/C=C\C/C=C\C/C=C\C=C\C(=O)CCCC(=O)O` [5-OXO-ETE]: the Stability entry in data set [1] is recorded as “Unstable”; in data set [2], “Stable”; in data set [3], “Stable”; in data set [5], “Stable”. For the same molecule, in data set [4], the EC50 – broadly, the concentration at which the effect is half-maximal – came out at 67 nM.

The values above are taken from ChEMBL document CHEMBL3217551, “A concise synthesis of the potent inflammatory mediator 5-oxo-ETE” (Medchemcomm, 2012).
